In patent US4196216A, “Novel benzylidene amini-oxyalkyl carboxylic acids and carboxylic acid derivatives” (U.S. Philips Corporation, priority 1968, dated 1980):

Assays:
[1] = known compound, background, cited from earlier work
[2] = acute toxicity (LD50 table, level of toxicity); details: in vivo
Source text: This low level of toxicity appears from the following table: […]

[3] = tested on: Rhine virus; test: activity against Rhine virus
[4] = anti-inflammatory and analgetic activities, general statement; format: in vivo; details: test not specified
[5] = route of administration: par(enteral)
[6] = po, route of administration: or(al)

SMILES	LD50 at 24 h [2, 5] [mg/kg]	LD50 at 24 h [2, 6] [mg/kg]	other results
COc1ccc2c(c1)c(CC(=O)O)cn2-c1ccc(Cl)cc1 [(N-p.chlorophenyl-5-methoxy indolyl-3) acetic acid]			potency [1]: highly potent; toxicity level [1]: high toxicity level; therapeutic level ([1]; due to high toxicity): quite low
CC(=NOCC(=O)O)c1ccc(Br)cc1 [Br H H CH3 CH2 OH]	> 100		
CC(=NOCC(N)=O)c1ccc(Cl)c(Cl)c1 [C1 C1 H CH3 CH2 NH2, [(α-methyl-3,4-dichlorobenzylidene amino)oxy] acetamide]		~1000	activity against Rhine virus [3]: interesting activity
CC(=NOCC(=O)O)c1ccc(Cl)c(Cl)c1 [C1 C1 H CH3 CH2 OH, [(α-methyl-3,4-dichlorobenzylene amino)oxy] acetic acid]	> 320		
CC(=NOCC(=O)O)c1ccc(Cl)cc1Cl [C1 H C1 CH3 CH2 OH, [(α-methyl-2,4-dichlorobenzylidene amino)oxy] acetic acid]	> 320		activity against Rhine virus [3]: interesting activity
CC(=NOCCC(N)=O)c1ccc(Cl)cc1 [C1 H H CH3 (CH2)2 NH2, 3-[(α-methyl-4-chlorobenzylideneamino)oxy] propionamide]		> 1000	
CC(=NOCCC(=O)O)c1ccc(Cl)cc1 [C1 H H CH3 (CH2)2 OH, 3-[(α-methyl-4-chlorobenzylideneamino)oxy] propionic acid]	> 100		
CC(=NOCCCC(=O)O)c1ccc(Cl)cc1 [C1 H H CH3 (CH2)3 OH, 4-[(α-methyl-4-chlorobenzylideneamino)oxy] butyric acid]	> 320		activity against Rhine virus [3]: interesting activity
CC(=NOCC(=O)N(C)C)c1ccc(Cl)cc1 [C1 H H CH3 CH2 (CH3)2 N, [(α-methyl-4-chlorobenzylidene amino)oxy]-N,N-dimethyl acetamide]		> 1000	
CC(=NOCC(N)=O)c1ccc(Cl)cc1 [C1 H H CH3 CH2 NH2, [(α-methyl-4-chlorobenzylidene amino)oxy]acetamide]		> 1000	LD50 at 48 h [2, 6]: > 1000 mg/kg; activities [4]: particularly strong activities; activity against Rhine virus [3]: interesting activity
CNC(=O)CON=C(C)c1ccc(Cl)cc1 [C1 H H CH3 CH2 NHCH3, [(α-methyl-4-chlorobenzylidene amino)oxy]-N-methyl acetamide]		> 1000	
CC(=NOCC(=O)NN)c1ccc(Cl)cc1 [C1 H H CH3 CH2 NHNH2, [(α-methyl-4-chlorobenzylidene amino)oxy] acet hydrazide]		~1000	activity against Rhine virus [3]: interesting activity
CC(=NOCC(=O)OCc1ccccc1)c1ccc(Cl)cc1 [C1 H H CH3 CH2 OCH2 C6 H5]		> 1000	
COC(=O)CON=C(C)c1ccc(Cl)cc1 [C1 H H CH3 CH2 OCH3, [(α-methyl-4-chlorobenzylidene amino)oxy] acetic acid methyl ester]		> 1000	LD50 at 48 h [2, 6]: > 1000 mg/kg; activities [4]: particularly strong activities
CC(=NOCC(=O)OC(C)C)c1ccc(Cl)cc1 [C1 H H CH3 CH2 OCH(CH3)2]		> 1000	
CC(=NOCC(=O)O)c1ccc(Cl)cc1 [C1 H H CH3 CH2 OH, [(α-methyl-4-chlorobenzylidene amino)oxy] acetic acid]		> 1000	LD50 at 48 h [2, 6]: > 1000 mg/kg; activities [4]: particularly strong activities
CCCCCCCCOC(=O)CON=C(C)c1ccc(Cl)cc1 [C1 H H CH3 CH2 OnC8 H17]		> 1000	
O=C(O)CON=Cc1ccc(Cl)cc1 [C1 H H H CH2 OH, [(4-chlorobenzylidene amino)oxy] acetic acid]	> 320		
CC(=NOCC(=O)O)c1ccc(C)cc1 [CH3 H H CH3 CH2 OH]	> 320		
CC(=NOCC(=O)O)c1ccc(S(C)(=O)=O)cc1 [CH3 SO2 H H CH3 CH2 OH]	> 320		
CC(=NOCC(=O)O)c1cccc(Cl)c1 [H C1 H CH3 CH2 OH]	> 320		
CCCCNC(=O)CON=C(C)c1ccc(Cl)cc1 [N-n.butyl-[(α-methyl-4-chlorobenzylideneamino)oxy] acetamide]			activity against Rhine virus [3]: interesting activity
